US20230390315A1, “COMPOSITIONS AND METHODS FOR TREATING ISCHEMIC CONDITIONS” (The Regents of the University of California, priority 2020, published 2023)

Legend:
skin wound = test: Skin wound healing model (splinted wound); format: in vivo, mouse; details: day 4; topical 20 μg daily
From the text: The model has been previously described. Briefly, C57BL/6 female mice (8-10 weeks old) were obtained from Jackson labs (Sacramento, CA). A fresh, full-thickness punch wound (4 mm diameter) using a punch (Acu Punch, Acuderm inc. Ft. Lauderdale, FL) splinted with a sterile neoprene ring (6-mm outer diameter and 4-mm inner diameter), fastened with 5-6 sutures (4-0 nylon) under the influence of Isoflurane was created on the back of the animal in a Class II Biological Safety Cabinet. For all surgical procedures, sterile technique was followed. Buprenorphine was given subcutaneously prior to awakening from anesthesia for anticipated pain. Mice were monitored until fully awake and were housed individually to minimize damage/biting/fighting to the surgical site. […] Treatment agents were prepared in PBS, sterile-filtered and 25 μl solution was applied daily directly to a wound bed for the first 4-5 days under the influence of Isoflurane, followed by daily observation. Wound closure was monitored by regular imaging and the wound area was quantified using ImageJ (National Institutes of Health, Bethesda, MD, USA). […] Epithelial gap was measured histomorphometrically using AxioVision LE Rel.4.4 software. […] Small vessels stained positive for CD31 were counted microscopically on 10 fields (20×) taken around the wound.

Bip, CHOP and ATF-6 = test: Western blot of UPR responsive proteins in BCECs; format: cell-based, bovine; details: growing cells deprived of growth factor supply
Experimental: (§1) Cells were allowed to reach ˜80% confluency in 12-well plates. […] At various time points, plates were taken out of the incubator and kept on ice. Cell monolayers were first washed once with ice-cold PBS before lysis with 250 μl of Pierce RIPA buffer (ThermoFisher Scientific, Rockford, IL) or use 50 mM Tris-HCl (pH 7.6), 150 mM NaCl, 10% Glycerol, 1% NP-40 containing protease/Phosphatase inhibitor cocktail (100×) (Cell signaling, #5872). Lysates were collected and mixed with 4×Bolt LDS Sample Buffer (Novex, Carlsbad, CA) in the presence of Halt protease inhibitors and phosphatase inhibitor cocktail (ThermoFisher scientific, #NP0007). The samples were subjected to SDS-PAGE (Bolt 4-12% Bis-Tris Plus, Invitrogen) using Bolt MES SDS running buffer or NuPAGE 3-8% Tris-Acetate gel using Tris-Acetate SDS running buffer (Novex). HUVECs (passage 6-8) were plated in EBM-2 basal medium (Lonza) with 0.2% FBS. […] Equal amounts of protein lysates were analyzed by SDS-PAGE and blotted with the indicated antibodies. Proteins were transferred using Tris-Glycine buffer with 20% Methanol (Proteonomics grade) (Apex BioResearch Products). Membranes were first incubated with 5% milk in TBST, pH 7.6 (TEKnova, Hollister, CA), followed by blotting with primary and secondary antibodies. ECL anti-rabbit IgG, horseradish peroxidase linked whole antibody from donkey or sheep anti-mouse were obtained from GE Healthcare (UK limited). SuperSignal West Dura Extended Duration substrate was from ThermoFisher Scientific. In some cases, the same PVDF membranes were stripped by 8-min incubation in the Restore Plus Western Blot Stripping Buffer (ThermoFisher Scientific) to show total specific protein expression, followed by second stripping for β-actin expression.

[1] = system: BCEC confluent monolayers; test: BCEC scratch assay; format: cell-based, bovine; details: 40 uM ManN or 50 ng/ml of VEGF; after 48 hours
Experimental: BCECs (passage 6-10) and HUVEC (passage 6-8) were used in this assay. Cells were grown until about 80% confluency in 6-well plates, washed twice with PBS and then starved in serum-free DMEM (low Glucose, Hyclone) for 5 hrs before making a “scratch” using 1 ml tip. Cell monolayers were briefly washed once with serum-free media, followed by various treatments in media containing 1% FBS. 48 hrs later, the assay was stopped by adding 2 ml 4% paraformaldehyde. 20 min later, fixed cells were stained with 1 ml Crystal Violet (Sigma). Plates were washed gently under the running tap water and air-dried before taking pictures. Images were acquired by ZEISS Discovery […] microscopy equipped with […] camera. Quantification of wound closure was done using AxioVision LE Rel.4.4 software. Six images were taken for each sample and six measurements (in pixel) were made on each image using AxioVision LE Rel.4.4 software.

VEGFR2 = test: Western blot of VEGFR2 molecular mass in BCECs and BRECs; format: cell-based, bovine; details: BCECs and BRECs
Experimental: Glycerol-free PNGase F was obtained from New England Biolabs (Ipswich, MA). Briefly, BCECs were lysed with NP-40 containing proteinase inhibitors (Thermo Scientific, Waltham, MA). Lysates were cleared at 4° C. at 5000 g for 25 mins. Total protein content was measured using Pierce BCA protein assay kit (ThermoScientific). […] of protein was mixed with 10× denaturing buffer and H2O to a total volume of […]. Glycoproteins were denatured at 100° C. for 10 mins, followed by adding Glycobuffer and PNGase F. The reaction was carried out at 37° C. for 2 hr.
as §1

[2] = system: bovine choroidal microvascular endothelial cells (BCEC); test: BCEC proliferation assay; format: cell-based
Experimental: Proliferation assays with BCECs and BRECs were performed. Log-phase growing BCECs or BRECs (passage <10) were trypsinized, re-suspended and seeded in 96-well plates (no coating) in low-glucose DMEM supplemented with 10% bovine calf serum, 2 mM glutamine, and antibiotics (growth medium), at a density of 1200-1500 cells per well in 200 μl volume. All reagents were added at the indicated final concentrations. […] Fluorescence was measured at 530 nm excitation wavelength and 590 nm emission wavelength. The experiments were repeated at least three times. […] On each 96-well plate, untreated and VEGF-treated (10/ng/ml) wells were included to monitor plate-to-plate variations. 20% methanol or 0.05% DMSO served as negative controls. 0.05% DMSO served as negative controls when Cas was tested in these cells. Human […] and human adult […] were split into Gelatin-coated 96 wells (2000 cells per well) in low glucose DMEM containing 10% FBS. 1200 cells/well was set up for proliferation assay in low glucose media containing FBS. […] HUVEC (p7-10) were grown on gelatin-coated plate until it reached 70-80% confluency. On the day of the assay, cells were dissociated with 0.05% trypsin, which was neutralized with 0.5% FBS-containing EBM. Cells were briefly spun and then re-suspended in 0.5% FBS-media. Cells were counted and plated in 96-well, 1000 cells/well. Triplicate wells were used for each treatment. Data were collected at day 3, and then cells were fixed in 4% paraformaldehyde for 15 min before adding crystal violet. Cell-covered areas were quantified after taking pictures by Image J software.

VEGF was tested, and the “average closure of the wound” value (skin wound) was 66.9%, the Bip expression (Bip, CHOP and ATF-6) was “not” and the “closure of the scratched area compared to control” value [1] was “significantly accelerated”. The “effect on apparent molecular mass of VEGFR2” value (VEGFR2) was “no effect”, the “fold increase in cell proliferation” value ([2]; 5 ng/ml VEGF) was 4-5 fold and the “dependence of VEGF activity on glycolysis” value ([2]; glucose-free media) was “not dependent on the glycolysis pathway”.
